The target in this assay is T1, PDK-1 (Homo sapiens, UniProt O15530).
T1 sequence (O15530 1-556): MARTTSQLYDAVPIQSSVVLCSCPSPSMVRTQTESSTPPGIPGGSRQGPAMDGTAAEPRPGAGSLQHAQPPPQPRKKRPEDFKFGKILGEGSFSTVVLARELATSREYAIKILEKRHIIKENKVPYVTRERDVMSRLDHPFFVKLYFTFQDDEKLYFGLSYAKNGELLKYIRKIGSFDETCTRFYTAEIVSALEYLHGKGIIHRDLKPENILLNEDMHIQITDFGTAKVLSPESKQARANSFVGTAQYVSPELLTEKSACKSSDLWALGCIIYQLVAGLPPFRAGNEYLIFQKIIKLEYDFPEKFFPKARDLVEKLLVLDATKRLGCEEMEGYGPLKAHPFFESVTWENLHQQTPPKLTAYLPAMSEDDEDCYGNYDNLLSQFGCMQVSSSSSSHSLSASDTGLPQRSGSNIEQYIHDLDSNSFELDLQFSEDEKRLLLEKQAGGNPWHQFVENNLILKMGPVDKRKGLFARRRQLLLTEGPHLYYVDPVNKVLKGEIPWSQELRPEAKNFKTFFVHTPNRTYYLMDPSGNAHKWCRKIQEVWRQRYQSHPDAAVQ
As to the kind of experiment: PDK-1 kinase inhibition ELISA assay (phosphorylation of His6-tagged SGK1 S422D by PDK-1). The format is biochemical.

The mark [1] stands for this setting: PDK-1 ELISA, Table 11, read-out: Average IC50.

Each structure is given as a SMILES string. Read-outs that look alike come from different tables or passages of the source.

Data on 35 compounds can be found in US20080293712A1, “Benzo[C][2,7]Naphtyridine Derivatives, Methods of Making Thereof and Methods of Use Thereof” (WYETH, priority 2007, published 2008).

Description: In an in vitro assay, His6-tagged SGK1 with S422D mutation (formerly Upstate Biotech, now Millipore) on Thr256 is allowed to be phosphorylated by PDK-1 in the presence of a Benzo[c][2,7]naphthyridine Derivative. After 20 minutes, the reaction is quenched via the addition of urea. The His6-tagged SGK1 is then bound to 96 well Ni-NTA HisSorb plates (Quiagen, Inc., Valencia, Calif.) and phosphorylated SGK1 is quantitatively detected using rabbit derived anti-phospho SGK antibody (Cell Signaling Technology, Danvers, Mass.) as the primary antibody and horseradish peroxidase (HRP)—coupled anti-rabbit antibody (formerly Zymed, now Invitrogen, Carlsbad, Calif.) as the secondary antibody. HRP is then detected using a chemiluminescent substrate (Pierce Chemical Co., Woburn, Mass.).

In the case of `COc1cc2ncc3c(N)nc(-c4cncc(Nc5ccc(C#N)cc5)c4)cc3c2cc1OC` [Ib-180, 4-{[5-(4-amino-8,9-dimethoxybenzo[c][2,7]naphthyridin-2-yl)pyridin-3-yl]amino}benzonitrile], under setting [1], the IC50 turned out to be 600 nM. In the case of `COc1ccccc1Nc1cncc(-c2cc3c(cnc4cc(OC)c(OC)cc43)c(N)n2)c1` [Ib-181, 8,9-dimethoxy-2-{5-[(2-methoxyphenyl)amino]pyridin-3-yl}benzo[c][2,7]naphthyridin-4-amine], the half-maximal inhibitory concentration (IC50) amounted to 73.7 nM.

Take `COc1cc2ncc3c(N)nc(-c4cncc(Nc5ccccc5N)c4)cc3c2cc1OC` [Ib-182, N-[5-(4-amino-8,9-dimethoxybenzo[c][2,7]naphthyridin-2-yl)pyridin-3-yl]benzene-1,2-diamine]: the IC50 under setting [1] stood at 50.7 nM.

Regarding `COc1cc2ncc3c(N)nc(-c4cncc(Nc5ccccc5Nc5ccccc5)c4)cc3c2cc1OC` [Ib-183, N-[5-(4-amino-8,9-dimethoxybenzo[c][2,7]naphthyridin-2-yl)pyridin-3-yl]-N′-phenylbenzene-1,2-diamine], under setting [1], the half-maximal inhibitory concentration (IC50) came out at 505 nM. Still for that read-out and setting: as for `COc1cc2ncc3c(N)nc(-c4cncc(Nc5ccccc5N5CCOCC5)c4)cc3c2cc1OC` [Ib-184b, 8,9-dimethoxy-2-{5-[(2-morpholin-4-ylphenyl)amino]pyridin-3-yl}benzo[c][2,7]naphthyridin-4-amine], the figure is 74 nM. The same measure, in the same setting: under `COc1cc2ncc3c(N)nc(-c4cncc(Nc5ccccc5NC(C)=O)c4)cc3c2cc1OC` [Ib-185, N-(2-{[5-(4-amino-8,9-dimethoxybenzo[c][2,7]naphthyridin-2-yl)pyridin-3-yl]amino}phenyl)acetamide] stands 37 nM; under `COc1cc2ncc3c(N)nc(-c4cncc(Nc5ccccc5C(N)=O)c4)cc3c2cc1OC` [Ib-186, 2-{[5-(4-amino-8,9-dimethoxybenzo[c][2,7]naphthyridin-2-yl)pyridin-3-yl]amino}benzamide], 164 nM; under `CNC(=O)c1ccccc1Nc1cncc(-c2cc3c(cnc4cc(OC)c(OC)cc43)c(N)n2)c1` [Ib-187, 2-{[5-(4-amino-8,9-dimethoxybenzo[c][2,7]naphthyridin-2-yl)pyridin-3-yl]amino}-N-methylbenzamide], 110 nM. The same measure, in the same setting: under `COc1cc2ncc3c(N)nc(-c4cncc(Nc5cccc(C(N)=O)c5)c4)cc3c2cc1OC` [Ib-188, 3-{[5-(4-amino-8,9-dimethoxybenzo[c][2,7]naphthyridin-2-yl)pyridin-3-yl]amino}benzamide] stands 39 nM. Turning to `COc1cc2ncc3c(N)nc(-c4cncc(Nc5cccc(CN)c5)c4)cc3c2cc1OC` [Ib-189, 2-(5-{[3-(aminomethyl)phenyl]amino}pyridin-3-yl)-8,9-dimethoxybenzo[c][2,7]naphthyridin-4-amine], under setting [1], the IC50 was determined as 27 nM.

For the compound `COc1cc2ncc3c(N)nc(-c4cncc(Nc5c(F)c(F)c(C(N)=O)c(F)c5F)c4)cc3c2cc1OC` [Ib-190, 4-{[5-(4-amino-8,9-dimethoxybenzo[c][2,7]naphthyridin-2-yl)pyridin-3-yl]amino}-2,3,5,6-tetrafluorobenzamide], the IC50 under setting [1] came out at 197 nM. `CCN(CC)CCNC(=O)c1ccc(Nc2cncc(-c3cc4c(cnc5cc(OC)c(OC)cc54)c(N)n3)c2)cc1` [Ib-191, 4-{[5-(4-amino-8,9-dimethoxybenzo[c][2,7]naphthyridin-2-yl)pyridin-3-yl]amino}-N-[2-(diethylamino)ethyl]benzamide]: the IC50 under setting [1] was determined as 81 nM.

On to `COc1cc2ncc3c(N)nc(-c4cncc(Nc5ccc(CN)cc5)c4)cc3c2cc1OC` [Ib-192, 2-(5-{[4-(aminomethyl)phenyl]amino}pyridin-3-yl)-8,9-dimethoxybenzo[c][2,7]naphthyridin-4-amine], for which, under setting [1], the concentration for half-maximal inhibition (IC50) turned out to be 81 nM. Same read-out and setting: under `COc1cc2ncc3c(N)nc(-c4cncc(Nc5ccc(C(=O)Nc6ccccc6)cc5)c4)cc3c2cc1OC` [Ib-193, 4-{[5-(4-amino-8,9-dimethoxybenzo[c][2,7]naphthyridin-2-yl)pyridin-3-yl]amino}-N-phenylbenzamide] stands 506 nM; under `COc1cc2ncc3c(N)nc(-c4cncc(Nc5ccc(CO)cc5)c4)cc3c2cc1OC` [Ib-194, (4-{[5-(4-amino-8,9-dimethoxybenzo[c][2,7]naphthyridin-2-yl)pyridin-3-yl]amino}phenyl)methanol], 142 nM. Same read-out and setting: under `COc1cc2ncc3c(N)nc(-c4cncc(Nc5cccc(CO)c5)c4)cc3c2cc1OC` [Ib-195, (3-{[5-(4-amino-8,9-dimethoxybenzo[c][2,7]naphthyridin-2-yl)pyridin-3-yl]amino}phenyl)methanol] stands 67 nM. On to `COc1cc2ncc3c(N)nc(-c4cncc(Nc5ccccc5CO)c4)cc3c2cc1OC` [Ib-196, (2-{[5-(4-amino-8,9-dimethoxybenzo[c][2,7]naphthyridin-2-yl)pyridin-3-yl]amino}phenyl)methanol], for which the IC50 was 47 nM. In turn, `COc1cc2ncc3c(N)nc(-c4cncc(Nc5ccccc5CCO)c4)cc3c2cc1OC` [Ib-197, 2-(2-{[5-(4-amino-8,9-dimethoxybenzo[c][2,7]naphthyridin-2-yl)pyridin-3-yl]amino}phenyl)ethanol] displayed an IC50 of 24 nM. On to `COc1cc2ncc3c(N)nc(-c4cncc(Nc5ccc(CCO)cc5)c4)cc3c2cc1OC` [Ib-198, 2-(4-{[5-(4-amino-8,9-dimethoxybenzo[c][2,7]naphthyridin-2-yl)pyridin-3-yl]amino}phenyl)ethanol], for which the concentration for half-maximal inhibition (IC50) under setting [1] came out at 91 nM. As for `COc1cc2ncc3c(N)nc(-c4cncc(Nc5ccccn5)c4)cc3c2cc1OC` [Ib-199, 8,9-dimethoxy-2-[5-(pyridin-2-ylamino)pyridin-3-yl]benzo[c][2,7]naphthyridin-4-Amine], the IC50 under setting [1] was 476 nM.

As for `COc1cc2ncc3c(N)nc(-c4cncc(Nc5cccnc5)c4)cc3c2cc1OC` [Ib-200, 8,9-dimethoxy-2-[5-(pyridin-3-ylamino)pyridin-3-yl]benzo[c][2,7]naphthyridin-4-Amine], under setting [1], the concentration for half-maximal inhibition (IC50) came to 158 nM. Still for that read-out and setting: under `COc1cc2ncc3c(N)nc(-c4cncc(Nc5ccncc5)c4)cc3c2cc1OC` [Ib-201, 8,9-dimethoxy-2-[5-(pyridin-4-ylamino)pyridin-3-yl]benzo[c][2,7]naphthyridin-4-Amine] stands 477 nM; under `COc1cc2ncc3c(N)nc(-c4cncc(Nc5ccccc5OCc5ccccc5)c4)cc3c2cc1OC` [Ib-202, 2-(5-{[2-(benzyloxy)phenyl]amino}pyridin-3-yl)-8,9-dimethoxybenzo[c][2,7]naphthyridin-4-amine], 1000 nM. On the same count and under the same terms, under `COc1cc2ncc3c(N)nc(-c4cncc(Nc5ccccc5)c4)cc3c2cc1OC` [Ib-203, 2-(5-anilinopyridin-3-yl)-8,9-dimethoxybenzo[c][2,7]naphthyridin-4-amine] stands 283 nM. The same measure, in the same setting: under `COc1cc2ncc3c(N)nc(-c4cncc(Nc5ccccc5-c5ccccc5)c4)cc3c2cc1OC` [Ib-204, 2-[5-(biphenyl-2-ylamino)pyridin-3-yl]-8,9-dimethoxybenzo[c][2,7]naphthyridin-4-Amine] stands 51 nM. Consider `COc1cc2ncc3c(N)nc(-c4cncc(Nc5ccccc5F)c4)cc3c2cc1OC` [Ib-205, 2-{5-[(2-fluorophenyl)amino]pyridin-3-yl}-8,9-dimethoxybenzo[c][2,7]naphthyridin-4-amine], for which the IC50 is 183 nM. For `COc1cc2ncc3c(N)nc(-c4cncc(Nc5ccc(C(N)=O)cc5)c4)cc3c2cc1OC` [Ib-206, 4-{[5-(4-amino-8,9-dimethoxybenzo[c][2,7]naphthyridin-2-yl)pyridin-3-yl]amino}benzamide], the 50% inhibitory concentration (IC50) under setting [1] came out at 183 nM. On the same count and under the same terms, as for `COc1ccc(Oc2cncc(-c3cc4c(cnc5cc(OC)c(OC)cc54)c(N)n3)c2)cc1` [Ib-210, 8,9-dimethoxy-2-[5-(4-methoxyphenoxy)pyridin-3-yl]benzo[c][2,7]naphthyridin-4-amine], the figure is > 700 nM; as for `COc1cc2ncc3c(N)nc(-c4ccc(Br)c(F)c4)cc3c2cc1OC` [Ib-234, 2-(4-bromo-3-fluorophenyl)-8,9-dimethoxybenzo[c][2,7]naphthyridin-4-amine], 1000 nM; as for `COc1ccc(-c2cc3c(cnc4cc(OC)c(OC)cc43)c(N)n2)cn1` [Ib-237, 8,9-dimethoxy-2-(6-methoxypyridin-3-yl)benzo[c][2,7]naphthyridin-4-amine], 50 nM.

Turning to `COc1cc2ncc3c(N)nc(-c4cc(F)cc(F)c4)cc3c2cc1OC` [Ib-239, 2-(3,5-difluorophenyl)-8,9-dimethoxybenzo[c][2,7]naphthyridin-4-amine], the IC50 under setting [1] was determined as 1000 nM. Same read-out and setting: as for `COc1cc2ncc3c(N)nc(-c4ccc(F)c(F)c4)cc3c2cc1OC` [Ib-240, 2-(3,4-difluorophenyl)-8,9-dimethoxybenzo[c][2,7]naphthyridin-4-amine], the figure is 998 nM. On the same count and under the same terms, under `COc1cc2ncc3c(N)nc(-c4cc(F)cc(C#N)c4)cc3c2cc1OC` [Ib-241, 3-(4-amino-8,9-dimethoxybenzo[c][2,7]naphthyridin-2-yl)-5-fluorobenzonitrile] stands 1000 nM; under `COc1cc(F)cc(-c2cc3c(cnc4cc(OC)c(OC)cc43)c(N)n2)c1` [Ib-242, 2-(3-fluoro-5-methoxyphenyl)-8,9-dimethoxybenzo[c][2,7]naphthyridin-4-amine], 147 nM. Still for that read-out and setting: as for `COc1cc2ncc3c(N)nc(-c4cccc(C(=O)N5CCN(c6ccccn6)CC5)c4)cc3c2cc1OC` [Ib-247, 8,9-dimethoxy-2-{3-[(4-pyridin-2-ylpiperazin-1-yl)carbonyl]phenyl}benzo[c][2,7]naphthyridin-4-amine], the figure is 1000 nM.
